Assay results: ChEMBL document CHEMBL1201862, “PubChem BioAssay data set” (2004)
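Exposure lasted 48 hours, with cells grown in 96-well plates and compounds tested at five concentrations. Abbreviation: GI50, concentration required for 50% inhibition of growth.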 Activity calls are given as the source filed them. Rule as the data show it: active = GI50 up to about 1.1 µM and inactive = higher.

Assays:
Assay in all cases: NCI tumour cell line growth inhibition, 48 h
ACHN = test system: ACHN
EKVX = test system: EKVX
HCC 2998 = test system: HCC 2998
HCT-116 = test system: HCT-116
HL-60 = test system: HL-60
K562 = test system: K562
MCF7 = test system: MCF7
MDA-MB-231 = test system: MDA-MB-231
NCI-H226 = test system: NCI-H226
NCI-H23 = test system: NCI-H23
NCI-H522 = test system: NCI-H522
PC-3 = test system: PC-3
RPMI-8226 = test system: RPMI-8226
SF-539 = test system: SF-539
SK-MEL-2 = test system: SK-MEL-2
SK-MEL-5 = test system: SK-MEL-5
SW-620 = test system: SW-620
UACC-257 = test system: UACC-257
UO-31 = test system: UO-31
UACC-62 = test system: UACC-62

| SMILES | GI50 (ACHN) | GI50 (EKVX) | GI50 (HCC 2998) | GI50 (HCT-116) | GI50 (HL-60) | GI50 (K562) | GI50 (MCF7) | GI50 (MDA-MB-231) | GI50 (NCI-H226) | GI50 (NCI-H23) | GI50 (NCI-H522) | GI50 (PC-3) | GI50 (RPMI-8226) | GI50 (SF-539) | GI50 (SK-MEL-2) | GI50 (SK-MEL-5) | GI50 (SW-620) | GI50 (UACC-257) | GI50 (UO-31) | GI50 (UACC-62) |
| --- | --- | --- | --- | --- | --- | --- | --- | --- | --- | --- | --- | --- | --- | --- | --- | --- | --- | --- | --- | --- |
| O=C(Nc1cc2cc([N+](=O)[O-])ccc2oc1=O)c1cccs1 | 49 µM (inactive) | 61.7 µM (inactive) | 48.3 µM (inactive) | 25.4 µM (inactive) | 16.7 µM (inactive) | 25.9 µM (inactive) | 19.6 µM (inactive) | 34.9 µM (inactive) | 44 µM (inactive) | > 10 µM (inactive) | 24.5 µM (inactive) | 37.8 µM (inactive) | 34 µM (inactive) | 25.6 µM (inactive) | 72.9 µM (inactive) | 16 µM (inactive) | 49.9 µM (inactive) | 75.2 µM (inactive) | 60.4 µM (inactive) |  |
| CCCC/C=C1/CCC(CN(C)C)C1=O (stereo not drawn) | 2.05 µM (inactive) |  | 1.56 µM (inactive) | 1.84 µM (inactive) | 0.885 µM (active) | 0.701 µM (active) | 0.525 µM (active) | 2.82 µM (inactive) | 11.1 µM (inactive) | 3.41 µM (inactive) | 0.656 µM (active) | 14.1 µM (inactive) | 0.0968 µM (active) | 2.48 µM (inactive) | 4.49 µM (inactive) | 9.02 µM (inactive) | 1.14 µM (inactive) | 2.17 µM (inactive) | 2.3 µM (inactive) | 2.09 µM (inactive) |
| COc1ccc(/C=C/C(=O)Oc2ccccc2OC)cc1 | > 27.6 µM (inactive) | 37.8 µM (inactive) | 16.6 µM (inactive) | 2.91 µM (inactive) | 6.98 µM (inactive) | 23.8 µM (inactive) | 44.4 µM (inactive) | 6.52 µM (inactive) | > 96.6 µM (inactive) | 33 µM (inactive) | 20.3 µM (inactive) | 44.4 µM (inactive) | 1.95 µM (inactive) | 53.2 µM (inactive) | 39 µM (inactive) | 30.7 µM (inactive) | 21.5 µM (inactive) | > 60.7 µM (inactive) | 37.7 µM (inactive) | 54.5 µM (inactive) |
| CC1=CC(=O)/C(=C/NC(=S)C(N)=S)C(=O)O1 | > 100 µM (inactive) | > 100 µM (inactive) | > 100 µM (inactive) | > 100 µM (inactive) | 47.5 µM (inactive) | > 100 µM (inactive) | > 100 µM (inactive) | > 100 µM (inactive) | > 100 µM (inactive) | > 100 µM (inactive) | > 100 µM (inactive) | > 100 µM (inactive) | > 100 µM (inactive) | > 100 µM (inactive) | > 100 µM (inactive) | > 100 µM (inactive) | > 100 µM (inactive) | > 100 µM (inactive) | > 100 µM (inactive) | > 100 µM (inactive) |
| C/C(=C/C(=O)Nn1c(Cc2ccccc2)n[nH]c1=O)C(=O)O | > 100 µM (inactive) | > 100 µM (inactive) | > 100 µM (inactive) | > 100 µM (inactive) | > 100 µM (inactive) | > 100 µM (inactive) | > 100 µM (inactive) | > 100 µM (inactive) | > 100 µM (inactive) | > 100 µM (inactive) | > 100 µM (inactive) | > 100 µM (inactive) | > 100 µM (inactive) | > 100 µM (inactive) | > 100 µM (inactive) | > 100 µM (inactive) | > 100 µM (inactive) | > 100 µM (inactive) | > 100 µM (inactive) | > 100 µM (inactive) |
| O=S1(=O)CCC2=CC(C(F)(F)F)=CC(C(F)(F)F)=CN21 | 0.415 µM (active) | 2.93 µM (inactive) | 2.07 µM (inactive) | 0.245 µM (active) | 0.168 µM (active) | 0.39 µM (active) | 0.386 µM (active) | 2.78 µM (inactive) | 2.08 µM (inactive) | 1.19 µM (inactive) | 0.236 µM (active) | 2.01 µM (inactive) | 0.535 µM (active) | 1.42 µM (inactive) | 1.82 µM (inactive) | 1.42 µM (inactive) | 0.302 µM (active) | 2.14 µM (inactive) | 0.805 µM (active) | 1.64 µM (inactive) |
| CC1(C)C(=O)N(O)C(C)(C)N1O | > 10 µM (inactive) | > 10 µM (inactive) | > 10 µM (inactive) | > 10 µM (inactive) | > 10 µM (inactive) | > 10 µM (inactive) | > 10 µM (inactive) | > 10 µM (inactive) | > 10 µM (inactive) | > 10 µM (inactive) | > 10 µM (inactive) | > 10 µM (inactive) | > 10 µM (inactive) | > 10 µM (inactive) | > 10 µM (inactive) | > 10 µM (inactive) | > 10 µM (inactive) | > 10 µM (inactive) |  | > 10 µM (inactive) |
| O=C1/C(=C/c2ccc(Cl)cc2)N=C(c2ccccc2)N1C1Nc2cc3c(cc2S1)NC(N1C(=O)/C(=C/c2ccc(Cl)cc2)N=C1c1ccccc1)S3 (stereo not drawn) | > 100 µM (inactive) | > 100 µM (inactive) | 61.1 µM (inactive) | 35.9 µM (inactive) | 0.336 µM (active) | 21.2 µM (inactive) | 42.2 µM (inactive) | > 100 µM (inactive) | > 100 µM (inactive) | > 100 µM (inactive) | 18.7 µM (inactive) | 40.7 µM (inactive) | 23.8 µM (inactive) | > 100 µM (inactive) | 88.9 µM (inactive) | 34.2 µM (inactive) | 22 µM (inactive) | > 100 µM (inactive) | 80.2 µM (inactive) |  |
| COc1ccc(/C=C2/C(=O)N(/C=C3\C(=O)Oc4ccccc4C3=O)/C(=N/C(C)=O)N2C)cc1OC | > 100 µM (inactive) | > 100 µM (inactive) | > 100 µM (inactive) | > 100 µM (inactive) | > 100 µM (inactive) | > 100 µM (inactive) | > 100 µM (inactive) | > 100 µM (inactive) | > 100 µM (inactive) | > 100 µM (inactive) | > 100 µM (inactive) | > 100 µM (inactive) | > 100 µM (inactive) | > 100 µM (inactive) | > 100 µM (inactive) | > 100 µM (inactive) | > 100 µM (inactive) | > 100 µM (inactive) |  | > 100 µM (inactive) |
| c1cc2ccc3cc4ncccc4c4ccc(c1)c2c34 | 6.87 µM (inactive) | 22.5 µM (inactive) | 25.6 µM (inactive) | 12 µM (inactive) | 33.2 µM (inactive) | 59.4 µM (inactive) | 0.338 µM (active) | 20.8 µM (inactive) | 17.5 µM (inactive) | 27.5 µM (inactive) | 16.7 µM (inactive) | 33 µM (inactive) | 10.1 µM (inactive) | 20.9 µM (inactive) | 16.6 µM (inactive) |  | 17.5 µM (inactive) | 56.8 µM (inactive) | 5.43 µM (inactive) | 20.6 µM (inactive) |
| O=C1CC(NCc2ccccc2)c2c(Cl)sc(Cl)c21 (stereo not drawn) | 22.3 µM (inactive) | 37.5 µM (inactive) | 17.4 µM (inactive) | 15.1 µM (inactive) | 17.2 µM (inactive) | 16.6 µM (inactive) | 14 µM (inactive) | 27.1 µM (inactive) | 25.9 µM (inactive) | 17.4 µM (inactive) | 6.05 µM (inactive) | 17.3 µM (inactive) | 2.26 µM (inactive) | 27.2 µM (inactive) | 19.5 µM (inactive) | 27 µM (inactive) | 17.7 µM (inactive) | 19.6 µM (inactive) | 31.4 µM (inactive) | 5.01 µM (inactive) |
| Cc1nc(O)nc2nc3ccc(Cl)cc3c(N(CCO)CCO)c12 | > 100 µM (inactive) | 0.762 µM (active) | > 100 µM (inactive) | > 100 µM (inactive) | > 100 µM (inactive) | 85.7 µM (inactive) | > 100 µM (inactive) | 39 µM (inactive) | 26.8 µM (inactive) | > 100 µM (inactive) | 24 µM (inactive) | > 100 µM (inactive) | 52.6 µM (inactive) | > 100 µM (inactive) | > 100 µM (inactive) | > 100 µM (inactive) | > 100 µM (inactive) | > 100 µM (inactive) | 73.6 µM (inactive) | > 100 µM (inactive) |
| Cc1ccc(S(=O)(=O)N2C3C=CC(C3)[C@@H]2C(Cl)(Cl)Cl)cc1 (stereo partly drawn) | 14.3 µM (inactive) | 5.22 µM (inactive) | 7.31 µM (inactive) | 10.8 µM (inactive) | 1.66 µM (inactive) |  | 26.7 µM (inactive) | 12.5 µM (inactive) | 15 µM (inactive) | 27.2 µM (inactive) | 14 µM (inactive) | 5.06 µM (inactive) | 3.09 µM (inactive) | 12.3 µM (inactive) | 7.36 µM (inactive) | 19.3 µM (inactive) | 20 µM (inactive) | 20.1 µM (inactive) | 15 µM (inactive) | 14.6 µM (inactive) |
| CN(C)c1cc2ccccc2oc1=O | > 100 µM (inactive) | > 100 µM (inactive) | > 100 µM (inactive) | > 100 µM (inactive) | > 100 µM (inactive) | > 100 µM (inactive) | > 100 µM (inactive) | > 100 µM (inactive) | > 100 µM (inactive) | > 100 µM (inactive) | > 100 µM (inactive) | > 100 µM (inactive) | > 100 µM (inactive) | > 100 µM (inactive) | > 100 µM (inactive) | > 100 µM (inactive) | > 100 µM (inactive) | > 100 µM (inactive) | > 100 µM (inactive) | > 100 µM (inactive) |
